Measured values from US7112565B2, “Stabilized pharmaceutical composition in lyophilized form” (Astellas Pharma Inc., priority 1999, dated 2006).

Legend:
Format in all cases: physicochemical
[1] = Test Example 1: effect of stabilizer on stability of lyophilized compositions of Compound (II)
Description: Effect of Stabilizer in Stabilizing Lyophilized Compositions of Compound (II)
(§1) 10 mg of Compound (II) and, as a stabilizer, 100 mg of lactose or 9 mg of sodium chloride were dissolved completely in 1 ml of water. The resulting solutions were lyophilized and maintained at 70° C. in glass vials. Nine days after, the resulting compositions were tested on their appearance, the residual amount of Compound (II), and others. As a control, used was a solution of Compound (II) without any stabilizers.

[2] = Test Example 3: dependence of stability on the amount of lactose added
Description: as §1
Dependence of the Stability of Lyophilized Compositions of Compound (II) upon the Amount of Lactose Added
Tests were carried out in the same manner as in Test example 1 except that 20 mg, 50 mg, 100 mg or 200 mg of lactose were added as a stabilizer. […] Incidentally, it took 15 seconds to reconstitute the compositions in 1 ml of water.

[3] = Test Example 7: dependence of stability on the water content of the composition; conditions: 10 mg Compound (II) + 50 mg lactose
Description: Dependence of the Stability of Lyophilized Compositions of Compound (II) upon the Water Content of the Composition
10 mg of Compound (II) and, as a stabilizer, 50 mg of lactose were dissolved completely in 1 ml of water. The resulting solutions were lyophilized and maintained at 70° C. in glass vials. Nine days after, the resulting compositions were tested on their pH, their water content and the residual amount of Compound (II).

[4] = Test Example 3: dependence of stability on the amount of lactose added; conditions: after 3 months at 40° C. and 75% humidity
[5] = Test Example 4: stability of lyophilized compositions of 200 mg of lactose and Compound (II) in vial
[6] = 10 mg Compound (II) + lactose (100 mg), 0 hours
[7] = 10 mg Compound (II) + lactose (100 mg), after 9 days at 70° C.
[8] = 10 mg Compound (II) + sodium chloride (9 mg), 0 hours
[9] = 10 mg Compound (II) + sodium chloride (9 mg), after 9 days at 70° C.
[10] = 10 mg Compound (II), control: nil stabilizer, 0 hours
[11] = 10 mg Compound (II), control: nil stabilizer, after 9 days at 70° C.
[12] = 10 mg Compound (II) + 20 mg lactose, 0 hours
[13] = 10 mg Compound (II) + 20 mg lactose, after 3 months at 40° C. and 75% humidity
[14] = 10 mg Compound (II) + 20 mg lactose, after 9 days at 70° C.
[15] = 10 mg Compound (II) + 50 mg lactose, 0 hours
[16] = 10 mg Compound (II) + 50 mg lactose, after 3 months at 40° C. and 75% humidity
[17] = 10 mg Compound (II) + 50 mg lactose, after 9 days at 70° C.
[18] = 10 mg Compound (II) + 100 mg lactose, 0 hours
[19] = 10 mg Compound (II) + 100 mg lactose, after 3 months at 40° C. and 75% humidity
[20] = 10 mg Compound (II) + 100 mg lactose, after 9 days at 70° C.
[21] = 10 mg Compound (II) + 200 mg lactose, 0 hours
[22] = 10 mg Compound (II) + 200 mg lactose, after 3 months at 40° C. and 75% humidity
[23] = 10 mg Compound (II) + 200 mg lactose, after 9 days at 70° C.
[24] = water content at 0 hours 0.9%, after 9 days at 70° C.
[25] = water content at 0 hours 1.4%, after 9 days at 70° C.
[26] = water content at 0 hours 2.6%, after 9 days at 70° C.
[27] = water content at 0 hours 3.4%, after 9 days at 70° C.
[28] = water content at 0 hours 5.1%, after 9 days at 70° C.
[29] = 25 mg Compound (II) + 200 mg lactose, after 3 months at 40° C. and 75% humidity

Question: For `CCCCCOc1ccc(-c2cc(-c3ccc(C(=O)NC4CC(O)C(O)NC(=O)C5C(O)C(C)CN5C(=O)C(C(O)CC(N)=O)NC(=O)C(C(O)C(O)c5ccc(O)c(OS(=O)(=O)[O-])c5)NC(=O)C5CC(O)CN5C(=O)C(C(C)O)NC4=O)cc3)no2)cc1.[Na+]` (centres unmarked) [Compound (II)], which Appearance [1, 6] is on record?
Answer: White mass

Question: What about the Residual amount [1, 6] of the same molecule?
Answer: 100.0%

Question: And the Water content [1, 6]?
Answer: 1.0%

Question: And the “pH of reconstituted solution in 1 ml of water” value (from here on “pH … of water”) [1, 6]?
Answer: 6.4

Question: What about the Appearance [1, 7] of the same molecule?
Answer: White mass

Question: What about the Residual amount [1, 7] of the same molecule?
Answer: 99.5%

Question: And the “pH … of water” value [1, 7]?
Answer: 6.1

Question: And the Appearance [1, 8]?
Answer: White mass

Question: What about the Residual amount [1, 8] of the same molecule?
Answer: 100.0%

Question: What about the Water content [1, 8] of the same molecule?
Answer: 0.7%

Question: What about the “pH … of water” value [1, 8] of the same molecule?
Answer: 6.7

Question: And the Appearance [1, 9]?
Answer: White mass

Question: What about the Residual amount [1, 9] of the same molecule?
Answer: 75.9%

Question: What about the “pH … of water” value [1, 9] of the same molecule?
Answer: 6.3

Question: And the Appearance [1, 10]?
Answer: White mass

Question: What about the Residual amount [1, 10] of the same molecule?
Answer: 100.0%

Question: And the Water content [1, 10]?
Answer: 1.3%

Question: What about the “pH … of water” value [1, 10] of the same molecule?
Answer: 7.1

Question: What about the Appearance [1, 11] of the same molecule?
Answer: Slightly yellow mass

Question: What about the Residual amount [1, 11] of the same molecule?
Answer: 8.0%

Question: What about the “pH … of water” value [1, 11] of the same molecule?
Answer: 2.7

Question: And the “Stability of lyophilized composition (conclusion from Tables 1 and 2)” value ([1]; with lactose, sodium chloride, maltose or sucrose, compared with no stabilizer or other stabilizers)?
Answer: significantly stable

Question: And the “Clarity of reconstituted solution in 1 ml of water” value (“Clarity of reconstituted solution” for short) [2, 12]?
Answer: Clear

Question: What about the “Color of reconstituted solution in 1 ml of water” value (from here on “Color of reconstituted solution”) [2, 12] of the same molecule?
Answer: Colorless

Question: What about the Residual amount [2, 12] of the same molecule?
Answer: 100.0%

Question: And the Total impurities [2, 12]?
Answer: 3.44%

Question: What about the Water content [2, 12] of the same molecule?
Answer: 1.2%

Question: What about the “pH … of water” value [2, 12] of the same molecule?
Answer: 6.09

Question: What about the “Clarity of reconstituted solution” value [2, 13] of the same molecule?
Answer: Clear

Question: What about the “Color of reconstituted solution” value [2, 13] of the same molecule?
Answer: Colorless

Question: And the Residual amount [2, 13]?
Answer: 100.0%

Question: What about the Total impurities [2, 13] of the same molecule?
Answer: 3.99%

Question: What about the “pH … of water” value [2, 13] of the same molecule?
Answer: 6.57

Question: And the “Clarity of reconstituted solution” value [2, 14]?
Answer: Not clear

Question: And the “Color of reconstituted solution” value [2, 14]?
Answer: White

Question: What about the Residual amount [2, 14] of the same molecule?
Answer: 88.09%

Question: What about the Total impurities [2, 14] of the same molecule?
Answer: 12.3%

Question: And the “pH … of water” value [2, 14]?
Answer: 3.03

Question: And the “Clarity of reconstituted solution” value [2, 15]?
Answer: Clear

Question: What about the “Color of reconstituted solution” value [2, 15] of the same molecule?
Answer: Colorless

Question: What about the Residual amount [2, 15] of the same molecule?
Answer: 100.0%

Question: What about the Total impurities [2, 15] of the same molecule?
Answer: 3.32%

Question: And the Water content [2, 15]?
Answer: 0.5%

Question: And the “pH … of water” value [2, 15]?
Answer: 6.57

Question: And the Appearance [2, 16]?
Answer: White mass

Question: And the “Clarity of reconstituted solution” value [2, 16]?
Answer: Clear

Question: And the “Color of reconstituted solution” value [2, 16]?
Answer: Colorless

Question: And the Residual amount [2, 16]?
Answer: 99.8%

Question: What about the Total impurities [2, 16] of the same molecule?
Answer: 4.21%

Question: And the “Clarity of reconstituted solution” value [2, 17]?
Answer: Clear

Question: And the “Color of reconstituted solution” value [2, 17]?
Answer: Colorless

Question: What about the Residual amount [2, 17] of the same molecule?
Answer: 96.7%

Question: What about the Total impurities [2, 17] of the same molecule?
Answer: 7.37%

Question: And the “pH … of water” value [2, 17]?
Answer: 5.56

Question: What about the “Clarity of reconstituted solution” value [2, 18] of the same molecule?
Answer: Clear

Question: And the “Color of reconstituted solution” value [2, 18]?
Answer: Colorless

Question: What about the Residual amount [2, 18] of the same molecule?
Answer: 100.0%

Question: What about the Total impurities [2, 18] of the same molecule?
Answer: 3.43%

Question: And the Water content [2, 18]?
Answer: 0.3%

Question: And the “pH … of water” value [2, 18]?
Answer: 6.58

Question: And the Appearance [2, 19]?
Answer: White mass

Question: What about the “Color of reconstituted solution” value [2, 19] of the same molecule?
Answer: Colorless

Question: What about the Residual amount [2, 19] of the same molecule?
Answer: 99.6%

Question: What about the Total impurities [2, 19] of the same molecule?
Answer: 3.96%

Question: And the “pH … of water” value [2, 19]?
Answer: 5.80

Question: And the “Clarity of reconstituted solution” value [2, 20]?
Answer: Clear

Question: And the “Color of reconstituted solution” value [2, 20]?
Answer: Colorless

Question: And the Residual amount [2, 20]?
Answer: 96.7%

Question: And the Total impurities [2, 20]?
Answer: 7.08%

Question: And the “pH … of water” value [2, 20]?
Answer: 6.08

Question: What about the “Clarity of reconstituted solution” value [2, 21] of the same molecule?
Answer: Clear

Question: What about the “Color of reconstituted solution” value [2, 21] of the same molecule?
Answer: Colorless

Question: And the Residual amount [2, 21]?
Answer: 100.0%

Question: What about the Total impurities [2, 21] of the same molecule?
Answer: 3.40%

Question: And the Water content [2, 21]?
Answer: 0.3%

Question: And the “pH … of water” value [2, 21]?
Answer: 6.78

Question: What about the Appearance [2, 22] of the same molecule?
Answer: White mass

Question: And the “Clarity of reconstituted solution” value [2, 22]?
Answer: Clear

Question: What about the “Color of reconstituted solution” value [2, 22] of the same molecule?
Answer: Colorless

Question: What about the Residual amount [2, 22] of the same molecule?
Answer: 99.6%

Question: What about the Total impurities [2, 22] of the same molecule?
Answer: 4.35%

Question: What about the “pH … of water” value [2, 22] of the same molecule?
Answer: 5.36

Question: And the “Clarity of reconstituted solution” value [2, 23]?
Answer: Clear

Question: What about the “Color of reconstituted solution” value [2, 23] of the same molecule?
Answer: Colorless

Question: What about the Residual amount [2, 23] of the same molecule?
Answer: 96.1%

Question: What about the Total impurities [2, 23] of the same molecule?
Answer: 7.30%

Question: And the “pH … of water” value [2, 23]?
Answer: 5.70

Question: What about the “Time to reconstitute the compositions in 1 ml of water” value ([2]; 10 mg Compound (II) + 20, 50, 100 or 200 mg lactose) of the same molecule?
Answer: 15 s

Question: And the “Stability of lyophilized compositions (conclusion from Table 3)” value ([2]; 10 mg of Compound (II) and various amount of lactose)?
Answer: no problem in their stability

Question: What about the “pH … of water” value ([3]; all water contents 0.9 to 5.1%, 0 hours) of the same molecule?
Answer: 7.1

Question: And the Residual amount [3, 24]?
Answer: 97.6%

Question: And the Water content [3, 24]?
Answer: 2.5%

Question: And the “pH … of water” value [3, 24]?
Answer: 7.5

Question: What about the Residual amount [3, 25] of the same molecule?
Answer: 98.1%

Question: What about the Water content [3, 25] of the same molecule?
Answer: 2.9%

Question: What about the “pH … of water” value [3, 25] of the same molecule?
Answer: 7.1

Question: And the Residual amount [3, 26]?
Answer: 97.1%

Question: And the Water content [3, 26]?
Answer: 3.6%

Question: What about the “pH … of water” value [3, 26] of the same molecule?
Answer: 6.8

Question: What about the Residual amount [3, 27] of the same molecule?
Answer: 92.7%

Question: What about the Water content [3, 27] of the same molecule?
Answer: 4.3%

Question: And the “pH … of water” value [3, 27]?
Answer: 6.8

Question: What about the Residual amount [3, 28] of the same molecule?
Answer: 18.3%

Question: What about the Water content [3, 28] of the same molecule?
Answer: 5.4%

Question: What about the “pH … of water” value [3, 28] of the same molecule?
Answer: 3.5

Question: What about the Appearance ([4]; 10 mg Compound (II) + 20 mg lactose) of the same molecule?
Answer: White mass

Question: And the “pH … of water” value ([4]; 10 mg Compound (II) + 50 mg lactose)?
Answer: 6.26

Question: What about the “Clarity of reconstituted solution” value ([4]; 10 mg Compound (II) + 100 mg lactose) of the same molecule?
Answer: Clear

Question: And the Residual amount [5, 29]?
Answer: 101.2%

Question: What about the “pH of reconstituted solution in 5 ml of purified water” value [5, 29] of the same molecule?
Answer: 6.14

Question: And the Total impurities ([5]; 50 mg Compound (II) + 200 mg lactose, after 21 days at 60° C.)?
Answer: 3.68%

Question: And the Residual amount ([5]; 75 mg Compound (II) + 200 mg lactose, after 21 days at 60° C.)?
Answer: 97.7%

Question: And the “pH of reconstituted solution in 5 ml of purified water” value ([5]; 100 mg Compound (II) + 200 mg lactose, after 3 months at 40° C. and 75% humidity)?
Answer: 5.85
